Assay results published in US20220249399A1, “COMPOSITION COMPRISING AN ANTI-OXIDANT TO PRESERVE CORNEAL TISSUE” (University of lowa Research Foundation, priority 2019, published 2022).
Entries after “also recorded” stand apart in the source; their conditions may differ. Where a name gives a salt, the structure may show the parent alone.

Columns and labels:
[1] = system: primary cultures of corneal endothelial cells; experiment: Seahorse XFe96 mitochondrial respiration of primary cultures of corneal endothelial cells; type: cell-based, human
Description: (§1) Human corneas were obtained by Iowa Lions Eye Bank (ILEB) from nondiabetic donors 60-75 years old and stored in Optisol GS (Bausch+Lomb, Irvine, Calif.) at 4° C. following procurement in accordance with Eye Bank Association of America and ILEB policies and procedures. Endothelial cells were isolated and cultured in Seahorse XFe96 well plates until they reached confluency. Purity of cell cultures were confirmed with anti-zonula occludens 1 (ZO-1) labeling of cellular tight junctions. Once confluent, cells were treated with different concentrations of cyclodextrin-coenzyme Q10 complex in culture (1 μM, 10 μM, or 100 μM) uncomplexed coenzyme Q10 (100 μM), cyclodextrin alone, or diluent control. Mitochondrial respiration was assayed by measuring oxygen consumption using the Seahorse XFe96 Extracellular Flux Analyzer (Agilent Technologies, Santa Clara, Calif.) over 120 minutes (9-minute intervals). Wells were labeled with a nuclear counterstain (DAPI) and nuclei were counted in each well to normalize respirometry data.
Seahorse respiration assays were conducted with MitoQ with doses ranging from 0 to 10 μM. All experiments were performed on corneal endothelial cells in culture and analyzed using the XFe96 Extracellular Flux Analyzer.
as §1, with “MitoQ with doses ranging from 0 to” for “different concentrations of cyclodextrin-coenzyme Q10 complex in culture (1 μM,”, “μM.” for “μM, or 100 μM) uncomplexed coenzyme Q10 (100 μM), cyclodextrin alone, or diluent control.”

[2] = system: human donor corneal endothelial cells; experiment: Mitochondrial respiration assay (Seahorse XFe24 extracellular flux analyzer) of donor corneal endothelium after storage in supplemented Optisol GS; type: cell-based; settings: 1 mM ascorbate-2-phosphate
Description: Human corneal tissue pairs were obtained by Iowa Lions Eye Bank (ILEB) from nondiabetic donors 60-75 years old and stored in Optisol GS (Bausch+Lomb, Irvine, Calif.) at 4° C. following procurement in accordance with Eye Bank Association of America and ILEB policies and procedures. For 5 days prior to testing, but within 9 days of procurement, one stored tissue from a corneal pair was treated with 10 μM CoQ10, while the mate tissue was treated with diluent only as a control. Descemet membrane and endothelial cell punches were collected and mounted onto the bottom of a Seahorse assay plate (cells facing upward). Mitochondrial respiration was assayed by measuring oxygen consumption using the Seahorse XFe24 Extracellular Flux Analyzer (Agilent Technologies, Santa Clara, Calif.) over 120 minutes (9-minute intervals). Punches were labeled with a nuclear counterstain (DAPI) and remaining tissues were mounted onto slides and labeled with 488A-Annexin V, Ethidium Homodimer III, and Hoechst 33342 (Apoptotic, Necrotic, and Healthy Cells Quantification Kit; Biotium, Fremont, Calif.) to assay cell health. Nuclei were counted in each punch to normalize respirometry data. Immunohistochemistry densitometry was measured using ImageJ software.
Human donor whole globe eye pairs were obtained by Iowa Lions Eye Bank (ILEB) and the anterior portion of the eyes were removed. For 14 days, one cornea was stored from a corneal pair treated with 1 mM ascorbate-2-phosphate, while the mate tissue was treated with diluent only as a control. Descemet membrane and endothelial cell punches were collected and mounted onto the bottom of a Seahorse assay plate (cells facing upward). Mitochondrial respiration was assayed by measuring oxygen consumption using the Seahorse XFe24 Extracellular Flux Analyzer (Agilent Technologies, Santa Clara, Calif.) over 120 minutes (9-minute intervals). Punches were labeled with a nuclear counterstain (DAPI) and nuclei were counted in each punch to normalize respirometry data. […]
Tissue preparation and extracellular flux assays for mitochondrial respiration were performed as described in Greiner et al. (2015). In brief, after pre-stripping the EDM, 3 mm diameter EDM punches were mounted in wells of a XF24 microplate (Agilent Technologies, Santa Clara, Calif.). After acclimation for one hour at 37° C. in non-buffered assay media, metabolic activity of the EDM samples was quantified using a commercial kit (XF Cell Mito Stress Test Kits; Agilent Technologies) on a Seahorse XFe24 extracellular flux analyzer (Agilent Technologies). Following extracellular flux analysis, tissues were labeled fluorescently using a 1:1000 Sytox Green nucleic acid stain in the microtiter plate (Life Technologies, Grand Island, N.Y.) and imaged on an Olympus IX-81 inverted microscope (Olympus America, Center Valley, Pa.) using a FITC filter. Cell counts were determined using Image J (https://imagej.nih.gov/ij/download.html) and used to compute the oxygen consumption rate per cell (OCR; pmole/min/cell). Raw OCR values were used to calculate several different key parameters of metabolic function per manufacturer's directions (Agilent Technologies), as in Aldrich et al. (2017). The parameters and calculations used in this study were the main outcome measures, including basal respiration, ATP-associated oxygen consumption, proton [H^+] leak, maximal respiration, spare respiratory capacity, non-mitochondrial respiration, and coupling efficiency as described in Schneider et al. and Goldstein et al. (2018).
Mitochondrial Respiration Assay: 3 mm punches of central and peripheral endothelium-Descemet membrane complex (EDM) were secured to the bottom of cell culture microplate wells or CECs were grown directly onto microplate.

[3] = system: immortalized human corneal endothelial cells; experiment: Seahorse XFe24 mitochondrial respiration of immortalized human corneal endothelial cells grown in hyperglycemic medium; type: cell-based; settings: 25 days of growth in 5.5-13.0 mM glucose, n=18, P<0.0001
Description: (§2) FIG. 40. Mitochondrial respiration assay using Seahorse XFe24 extracellular flux analyzer of immortalized human corneal endothelial cells following 25 days of growth in 5.5-13.0 mM glucose and treated with 8.3 μM PQQ (n=18). Maximal respiration and spare respiratory capacity are lowered in HCECs (P<0.0001) due to hyperglycemic growing conditions.
as §2, with “41.” for “40.”, “1.0 mM NAC” for “8.3 μM PQQ”

[4] = MitoQ 0 to 10 μM (data not shown)
[5] = MitoQ 0 to 10 μM, control vs 10 μM P<0.001, n=3

cyclodextrin [cyclodextrin alone]
mitochondrial spare respiratory capacity ([1]; uncomplexed coenzyme Q10 (100 μM) or cyclodextrin alone vs diluent control): reduces the mitochondrial spare respiratory capacity

ascorbate-2-phosphate
corneal endothelial cell mitochondrial respiration [2]: did not affect corneal endothelial cell mitochondrial respiration
non-mitochondrial respiration, higher level than untreated control cells ([2]; 14 days storage, 5 paired corneas, p-value=0.053): 21%

COC1=C(OC)C(=O)C(CCCCCCCCCC[P+](c2ccccc2)(c2ccccc2)c2ccccc2)=C(C)C1=O [MitoQ, mitoquinone mesylate]
basal respiration [1, 4]: dose dependent reductions
maximal respiration [1, 4]: dose dependent reductions
non-mitochondrial respiration [1, 4]: not influenced
proton leak [1, 4]: not influenced
ATP linked oxygen consumption (ATP linked respiration) [1, 5]: dose dependent decrease; also recorded: significantly different
spare respiratory capacity [1, 5]: dose dependent decrease; also recorded: significantly different
respiratory function ([1]; escalating doses of MitoQ, 0 to 10 μM): dose dependent decrease in respiratory function; also recorded: decreased in respiratory function

CC(=O)N[C@@H](CS)C(=O)O [NAC, N-Acetyl-L-cysteine]
maximal respiration and spare respiratory capacity lowered by hyperglycemic growing conditions ([3]; 1.0 mM NAC): mitigates this effect

O=C(O)c1cc(C(=O)O)c2c(n1)C(=O)C(=O)c1cc(C(=O)O)[nH]c1-2 [PQQ, pyrroloquinoline quinone]
maximal respiration and spare respiratory capacity lowered by hyperglycemic growing conditions ([3]; 8.3 μM PQQ): mitigates this effect
